Data as given in the NIST ThermoML archive (doi:10.1016/j.jct.2018.09.027).

Test: molar heat capacity at constant pressure
Conditions: 100 kPa, Crystal, DSC

O=c1oc2c(O)c(O)cc3c(=O)oc4c(O)c(O)cc1c4c23 [2,3,7,8-tetrahydroxychromeno[5,4,3-cde]chromene-5,10-dione]
Conditions	molar heat capacity at constant pressure [J/K/mol]
260.15 K	292.07
261.15 K	292.68
262.15 K	293.58
263.15 K	294.64
264.15 K	295.85
265.15 K	297.06
266.15 K	297.97
267.15 K	298.87
268.15 K	299.93
269.15 K	301.59
270.15 K	303.41
271.15 K	303.41
272.15 K	304.01
273.15 K	305.37
274.15 K	307.49
275.15 K	308.39
276.15 K	308.09
277.15 K	308.54
278.15 K	310.36
279.15 K	311.57
280.15 K	311.26
281.15 K	312.62
282.15 K	314.29
283.15 K	315.19
284.15 K	315.95
285.15 K	316.25
286.15 K	317.16
287.15 K	318.97
288.15 K	320.33
289.15 K	319.72
290.15 K	320.48
291.15 K	321.84
292.15 K	323.35
293.15 K	323.05
294.15 K	324.26
295.15 K	325.47
296.15 K	326.4
297.15 K	327.73
298.15 K	328.85
299.15 K	329.64
300.15 K	330.7
301.15 K	331.91
302.15 K	332.12
303.15 K	333.63
304.15 K	334.99
305.15 K	335.69
306.15 K	336.45
307.15 K	337.53
308.15 K	338.02
309.15 K	339.27
310.15 K	339.49
311.15 K	340.77
312.15 K	341.16
313.15 K	342.26
314.15 K	343.3
315.15 K	343.78
316.15 K	345.03
317.15 K	346.85
318.15 K	347.5
319.15 K	348.3
320.15 K	349.21
321.15 K	350.81
322.15 K	351.92
323.15 K	352.53
324.15 K	353.13
325.15 K	354.43
326.15 K	355.55
327.15 K	356.86
328.15 K	357.07
329.15 K	358.38
330.15 K	359.69
331.15 K	361.39
332.15 K	362.3
333.15 K	363.1
334.15 K	364.21
335.15 K	365.02
336.15 K	366.23
337.15 K	367.13
338.15 K	368.24
339.15 K	369.55
340.15 K	370.36
341.15 K	370.96
342.15 K	371.07
343.15 K	372.48
344.15 K	373.08
345.15 K	373.69
346.15 K	374.1
347.15 K	375.31
348.15 K	376.31
349.15 K	377.02
350.15 K	378.82
351.15 K	379.03
352.15 K	379.54
353.15 K	381.35
354.15 K	383.99
355.15 K	385.91
356.15 K	385.3
357.15 K	386.51
358.15 K	387.62
359.15 K	388.02
360.15 K	390.04
361.15 K	391.3
362.15 K	392.55
363.15 K	393.1
364.15 K	393.5
365.15 K	394.2
366.15 K	395.1
367.15 K	396
368.15 K	396.5
369.15 K	397.3
370.15 K	397.8
371.15 K	398
372.15 K	399.5
373.15 K	400.1
374.15 K	401.2
375.15 K	402.5
376.15 K	403.1
377.15 K	403.8
378.15 K	404.5
379.15 K	405.3
380.15 K	406.12
381.15 K	407.6
382.15 K	408.2
383.15 K	409.5
384.15 K	410.1
385.15 K	411.31
386.15 K	412.22
387.15 K	413.52
388.15 K	414.82
389.15 K	415.43
390.15 K	416.64
391.15 K	417.54
392.15 K	418.85
393.15 K	419.15
394.15 K	420.36
395.15 K	421.26
396.15 K	421.57
397.15 K	422.17
398.15 K	423.08
399.15 K	423.98
400.15 K	424.59
401.15 K	424.59
402.15 K	425.19
403.15 K	426.4
404.15 K	427.31
405.15 K	427
406.15 K	427.31
407.15 K	427.91
408.15 K	429.42
409.15 K	430.03
410.15 K	430.78
411.15 K	431.39
412.15 K	432.44
413.15 K	432.9
414.15 K	433.5
415.15 K	434.56
416.15 K	435.77
417.15 K	436.2
418.15 K	437
419.15 K	438.2
420.15 K	439.1
421.15 K	440.5
422.15 K	441.2
423.15 K	442.3
424.15 K	443.93
425.15 K	444.5
426.15 K	444.8
427.15 K	445.1
428.15 K	445.9
429.15 K	446.2
430.15 K	446.8
431.15 K	447.3
432.15 K	448.2
433.15 K	448.6
434.15 K	449.4
435.15 K	450.58
436.15 K	451.79
437.15 K	452.39
438.15 K	452.69
439.15 K	452.99
440.15 K	453.9
441.15 K	454.71
442.15 K	455.32
443.15 K	455.41
444.15 K	455.71
445.15 K	456.02
446.15 K	457.53
447.15 K	457.83
448.15 K	458.43
449.15 K	459.04
450.15 K	459.64
451.15 K	459.94
452.15 K	460.2
453.15 K	460.85
454.15 K	461.14
455.15 K	460.85
456.15 K	461.3
457.15 K	461.76
458.15 K	462.11
459.15 K	462.61
460.15 K	463.82
461.15 K	464.57
462.15 K	465.08
463.15 K	466.38
464.15 K	467.05
465.15 K	468.71
466.15 K	468.5
467.15 K	469
468.15 K	469.5
469.15 K	470.1
470.15 K	470.8
471.15 K	471.2
472.15 K	471.5
473.15 K	472.94
474.15 K	473.85
475.15 K	474.15
476.15 K	474.75
477.15 K	475.05
478.15 K	476.26
479.15 K	477.17
480.15 K	477.47
481.15 K	478.38
482.15 K	479.59
483.15 K	480.19
484.15 K	480.39
485.15 K	481.19
486.15 K	482
487.15 K	482.31
488.15 K	482.61
489.15 K	483.31
490.15 K	484.21
491.15 K	485.63
492.15 K	486.93
493.15 K	487.54
494.15 K	488.84
495.15 K	489.26
496.15 K	489.26
497.15 K	489.56
498.15 K	489.26
499.15 K	490.77
500.15 K	491.28
501.15 K	492.18
502.15 K	493.28
503.15 K	494.19
504.15 K	495
505.15 K	495.3
506.15 K	495
507.15 K	494.7
508.15 K	495
509.15 K	495
510.15 K	495.3
511.15 K	496
512.15 K	497.72
513.15 K	497.82
514.15 K	498.32
515.15 K	499.23
516.15 K	499.5
517.15 K	500.1
518.15 K	501.3
519.15 K	501.8
520.15 K	502.5
521.15 K	503.1
522.15 K	503.6
